Earlier results in US20100285098A1, “ADHERING TROCHES WITH SANTACID FOR TREATMENT OF THROAT ESOPHAGUS AND STOMACH” (priority 2007, published 2010).

Structure (SMILES)	suppression of Helicobacter pylori (Helicobacter pylori)	suppression of Streptococcus pyogenes (Streptococcus pyogenes)	absorbed into the blood (delivered to the stomach such as by capsule) [%]	inhaled dose systemically absorbed (delivered topically by dry powder inhaler)	excretion (in vivo)	metabolism by the body (in vivo)	side effects (other than those caused by the delivery vehicle)
OC[C@@H](O)[C@H](O)[C@@H](O)CO [xylitol]	suppressed	suppressed	–	–	–	–	–
CC(=O)N[C@H]1[C@H]([C@H](O)[C@H](O)CO)OC(C(=O)O)=C[C@@H]1N=C(N)N [Zanamavir, zanamavir]	–	–	2	4-17%	excreted in the urine without change	not metabolized	Rare side effects
